{"source": "paper PMC7615676", "about": "“Short-course combination treatment for experimental chronic Chagas disease” (Science translational medicine, 2023)", "key": {"[1]": {"test_system": "wild-type T. cruzi epimastigotes", "experiment": "epimastigote drug sensitivity assay, wild-type", "type": "cell-based", "conditions": "Trypanosoma cruzi", "procedure": "(§1) T. cruzi epimastigotes from the Silvio strain (MHOM/BR/78/Silvio; clone X10/7A) were grown at 28°C in RTH/FBS medium ([80]).\n(§2) T. cruzi epimastigote assays carried out as described previously ([43])."}, "[2]": {"target": "T. cruzi complex III (epimastigote lysates) (Trypanosoma cruzi, UniProt Q9T479)", "sequence (Q9T479 entry or part of it, one chain of several)": "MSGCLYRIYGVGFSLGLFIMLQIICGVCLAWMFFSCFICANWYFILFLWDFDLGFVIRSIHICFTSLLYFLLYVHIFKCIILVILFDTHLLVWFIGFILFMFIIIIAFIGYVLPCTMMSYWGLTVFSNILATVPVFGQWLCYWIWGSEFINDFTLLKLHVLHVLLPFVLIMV", "experiment": "T. cruzi complex III assay", "type": "biochemical", "conditions": "decylubiquinol substrate", "procedure": "Complex III activity within these lysates was monitored in the presence and absence of compound 3, compound 5 and related analogues from this series, using decylubiquinol as a pseudo-substrate ([43]).\nMeasurement of complex III activity and inhibition were performed as described previously ([43])."}, "[3]": {"test_system": "T. cruzi epimastigotes bearing mutations in cytochrome b", "experiment": "epimastigote drug sensitivity assay, cytochrome b mutant / resistant lines", "type": "cell-based, Trypanosoma cruzi", "conditions": "for EC50: Trypanosoma cruzi", "procedure": "as §1, §2\nCompound-resistant cell lines were generated by subculturing clones of wild-type T. cruzi epimastigotes in the continuous presence of compound 3 or compound 5. Starting at sublethal concentrations, drug concentrations in 3 independent cultures were increased in a stepwise manner, usually by 2-fold. When parasites were able to survive and grow in compound concentrations equivalent to >30-fold their established EC50 value, they were cloned by limiting dilution in the presence of compound. Three independent clones were selected from each compound for further study."}, "[4]": {"test_system": "intracellular T. cruzi amastigotes, strain Silvio X10/7 A1", "experiment": "intracellular T. cruzi amastigote potency assay", "type": "cell-based", "conditions": "Trypanosoma cruzi"}, "[5]": {"test_system": "Vero host cells", "experiment": "cytotoxicity against host cells in intracellular amastigote assay", "type": "cell-based", "conditions": "host cell cytotoxicity; for EC50: Chlorocebus sabaeus, Vero"}, "[6]": {"test_system": "T. cruzi culture derived trypomastigotes, strain Silvio X10/7 A1", "experiment": "trypomastigote assay", "type": "cell-based", "conditions": "Trypanosoma cruzi", "procedure": "Trypomastigote assays using strain Silvio X10/7 subclone A1 were carried out as described in ([19]). Parasite culture and potency determinations for panel of strains were performed as in ([19]). Strains used were M6241 clone 6 (DTU III), ERA clone 2 (DTU IV), PAH179 clone 5 (DTU V) and CL Brener-Luciferase (PpyRE9h-expressing T. cruzi, same strain that is used in animal model studies ([67])) (DTU VI). […] For Y strain compound exposure time was 3 days. Rate-of-kill assays were carried out as described in ([39])."}, "[7]": {"target": "T. cruzi CYP51 (Trypanosoma cruzi, UniProt Q7Z1V1)", "sequence (Q7Z1V1 whole entry)": "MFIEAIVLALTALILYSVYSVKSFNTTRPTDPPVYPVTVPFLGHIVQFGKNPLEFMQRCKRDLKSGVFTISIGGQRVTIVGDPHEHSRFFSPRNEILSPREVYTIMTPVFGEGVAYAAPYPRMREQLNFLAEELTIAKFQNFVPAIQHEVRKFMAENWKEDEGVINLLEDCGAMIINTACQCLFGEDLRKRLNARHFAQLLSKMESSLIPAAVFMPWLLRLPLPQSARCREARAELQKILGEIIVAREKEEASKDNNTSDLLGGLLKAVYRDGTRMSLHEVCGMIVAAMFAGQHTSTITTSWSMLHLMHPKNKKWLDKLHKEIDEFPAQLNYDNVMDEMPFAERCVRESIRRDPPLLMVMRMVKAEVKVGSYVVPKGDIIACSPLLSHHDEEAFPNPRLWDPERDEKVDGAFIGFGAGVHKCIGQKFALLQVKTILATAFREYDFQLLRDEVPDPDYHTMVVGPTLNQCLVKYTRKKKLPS", "experiment": "T. cruzi CYP51 biochemical assay"}, "[8]": {"test_system": "HepG2 cells", "experiment": "general cytotoxicity assay in HepG2 cells", "type": "cell-based", "conditions": "Homo sapiens, HepG2, 48 h, CellTiter-Glo", "procedure": "This assay was previously described ([36]). Briefly, actively growing HepG2 cells were removed from a T-175 TC flask using 5 ml Eagle’s MEM (containing 10 % FBS, 1 % NEAA, 1 % penicillin/ streptomycin. Carbon source is D-glucose at 1 g/l) and dispersed in the medium by repeated pipetting. Seeding density was checked to ensure that new monolayers were not more than 50 % confluent at the time of harvesting. Cell suspension was added to 500 ml of the same medium at a final density of 1.2 x 10^5 cells/ml. This cell suspension was dispensed (25 μl, 3000 cells per well) into 384-well clear-bottom plates using a Multidrop Combi dispenser. Prior to addition of the cell suspension, the screening compounds (250 nl) were predispensed into the plates with an EchoH liquid handler. Plates were incubated for 48 h at 37°C, 5% CO2. After incubation, plates equilibrated at room temperature for 30 min before proceeding to develop the luminescent signal. The signal developer, CellTiter-Glo Reagent, was allowed to equilibrate at room temperature for 30 min and added to the plates ([…]) using a Multidrop Combi dispenser. Plates were left for 10 min at room temperature for stabilization and then read using a ViewLux."}, "[9]": {"experiment": "chromatographic LogD assay", "type": "physicochemical", "conditions": "reversed phase HPLC column (Gemini NX C18), pH 7.4; read-out: Chrom logD pH 7.4", "procedure": "The chromatographic hydrophobicity index (CHI) values were measured using reversed phase HPLC column (50 mm × 2 mm, 3 μm Gemini NX C18, Phenomenex, U.K.) with fast acetonitrile gradient at starting mobile phase at pH 7.4. CHI values were derived directly from the gradient retention times by using a calibration line obtained for standard compounds. The CHI value approximates to the volume % organic concentration when the compound elutes. CHI was linearly transformed into ChromlogD by least-squares fitting of experimental CHI values to calculated log P (ClogP) values for over 20K research compounds using the following formula: ChromlogD = 0.0857CHI − 2.00. The average error of the assay is ±3 CHI units or ± 0.25 ChromlogD."}, "[10]": {"experiment": "Property Forecast Index", "type": "physicochemical", "conditions": "number of aromatic rings + ChromLogD at pH 7.4"}, "[11]": {"experiment": "kinetic aqueous solubility (CLND)", "type": "physicochemical", "conditions": "phosphate buffered saline, aqueous buffer, kinetic from dmso stock, pH 7.4", "procedure": "The eluent is quantified by suitably calibrated flow injection CLND. This assay has a dynamic range between the lower detection limit of 1 and 500 μM, governed by the protocol’s 1:20 dilution into pH 7.4 phosphate buffer solution from nominal 10 mM DMSO stock."}, "[12]": {"experiment": "FaSSIF solubility assay", "type": "physicochemical", "conditions": "pH 6.5, 4 h", "procedure": "Solubility of test compounds in fasted simulated intestinal fluid (FaSSIF) was determined at pH 6.5 after 4 h equilibration at rt. An amount of1 mL of FaSSIF buffer (3 mM sodium taurocholate, 0.75 mM lecithin in sodium phosphate buffer at pH 6.5) was added to manually weighed 1 mg of solid compound in a 2 mL HPLC autosampler vial. The resulting suspension was shaken at 900 rpm for 4 h at rt and then transferred to a Multiscreen HTS, 96-well solubility filter plate. The residual solid was removed by filtration. The supernatant solution was quantified by HPLC−UV using single-point calibration of a known concentration of the compound in DMSO. The dynamic range of the assay was 1−1000 μg/mL."}, "[13]": {"test_system": "intracellular T. cruzi Silvio X10/7 A1 in Vero cells", "experiment": "washout outgrowth assay", "type": "cell-based, Trypanosoma cruzi", "conditions": "8-days treatment, BNZ at 12.5× EC50 (Fig. S7)", "procedure": "Washout outgrowth assay: Vero cells were infected overnight in T600 flasks at a multiplicity of infection (MOI) 5 with T. cruzi Silvio X10/7 A1 trypomastigotes, followed by washing of the Vero monolayer to remove free trypomastigotes. 24 hours later the monolayer was trypsinised, 5.3 x 10^6 Vero cells were plated in T75 tissue culture flasks (in 20 ml MEM-Glutamax (ThermoFisher), 1% Fetal Calf Serum (FCS)), and treatment was started. For ten-day treatments, medium with compounds was replaced after the initial 5 days. For 16 day treatments the compounds were replaced every four days. For compound washout, all medium was aspirated, and flasks were washed three times with 10 ml serum-free MEM medium followed by a final aspiration and addition of 20 ml MEM-Glutamax (ThermoFisher) supplemented with 1% FCS. The cultures were then maintained until trypomastigotes were detected by light microscopy. Medium was replaced twice weekly and prior to each medium replacement microscopic evaluation was carried out (five fields per flask) for up to 60 days post washout. Robustness of the data was confirmed by profiling multiple compounds from the pyrrolopyrimidine series in a single experiment (compounds 2,3 and 4 in Fig. 2 and Fig. S17) as well as comparing results from independent experiments (compound 2 in Fig. 2, Fig. S5 and Fig. S7)."}, "[14]": {"set-up": "method as in PMID 21073628, PMID 20932171", "conditions": "patients; cited from earlier work"}, "[15]": {"conditions": "intracellular amastigotes Silvio X10/7 A1, 96 h, ± SD, min. three experiments, read-out: Amastigotes pEC50 (converted)"}, "[16]": {"conditions": "read-out: Vero pEC50 (converted)"}, "[17]": {"conditions": "read-out: Trypomastigotes pEC50 (converted)"}}, "note": "Where two headings read alike, the source gives them in different places.", "data": [{"smiles": "COc1cc(F)ccc1-c1c(C)n(C)c2nc(N)nc(C)c12", "note": "[Compound 5, 5-(4-Fluoro-2-methoxyphenyl)-4,6,7-trimethyl-7H-pyrrolo[2,3-d]pyrimidin-2-amine]", "values": [{"measurement": "EC50", "setting": "[1]; read-out: EC50 wild-type", "value": "2.4 ± 0.1", "unit": "nM"}, {"measurement": "EC50", "setting": "[1]; read-out: EC50 wild-type epimastigotes", "value": "11.3 ± 0.5", "unit": "nM"}, {"measurement": "EC50", "setting": "[1]; Table 2, wild-type epimastigotes, read-out: EC50 WT", "value": "2 ± 0.1", "unit": "nM"}, {"measurement": "IC50", "setting": "[2]", "value": "1 ± 0.2", "unit": "nM"}, {"measurement": "EC50", "setting": "[3]; read-out: EC50 F222L", "value": "486 ± 18", "unit": "nM"}, {"measurement": "EC50", "setting": "[3]; read-out: EC50 G36C/L197F cytb line", "value": "1.2 ± 0.1", "unit": "nM"}, {"measurement": "EC50", "setting": "[3]; read-out: EC50 G36C/L197I cytb line", "value": "37 ± 2", "unit": "nM"}, {"measurement": "EC50", "setting": "[3]; read-out: EC50 L197F cytb line", "value": "1.1 ± 0.1", "unit": "nM"}, {"measurement": "EC50", "setting": "[3]; read-out: EC50 L197I", "value": "21 ± 0.5", "unit": "nM"}, {"measurement": "EC50", "setting": "[3]; read-out: EC50 compound 5-resistant clone RES1", "value": "417 ± 11", "unit": "nM"}, {"measurement": "EC50", "setting": "[3]; read-out: EC50 compound 5-resistant clone RES2", "value": "585 ± 30", "unit": "nM"}, {"measurement": "EC50", "setting": "[3]; read-out: EC50 compound 5-resistant clone RES3", "value": "635 ± 33", "unit": "nM"}, {"measurement": "fold change from WT, L197I", "setting": "[3]; compound 3-resistant line (L197I)", "value": 10, "unit": "fold"}, {"measurement": "fold change from WT, F222L", "setting": "[3]; compound 5-resistant line (F222L)", "value": 224, "unit": "fold"}, {"measurement": "cross-resistance of G36C and L197I epimastigotes", "setting": "[3]; versus wild-type", "value": 9, "unit": "fold"}]}, {"smiles": "COc1ccccc1-c1c(C)[nH]c2nc(N)nc(C)c12", "note": "[Compound 1, 5-(2-methoxyphenyl)-4,6-dimethyl-7H-pyrrolo[2,3-d]pyrimidin-2-amine]", "values": [{"measurement": "EC50", "setting": "[4]; [15]", "value": 316, "unit": "nM"}, {"measurement": "EC50", "setting": "[4]; read-out: Amastigotes EC50", "value": 320, "unit": "nM"}, {"measurement": "EC50", "setting": "[5]; read-out: Vero EC50", "value": "> 50000", "unit": "nM"}, {"measurement": "EC50", "setting": "[5]; [16]", "value": "> 31600", "unit": "nM"}, {"measurement": "Vero pEC50", "setting": "[5]", "value": "< 4.3"}, {"measurement": "EC50", "setting": "[6]; read-out: Trypomastigotes EC50", "value": 250, "unit": "nM"}, {"measurement": "EC50", "setting": "[6]; [17]", "value": 251, "unit": "nM"}, {"measurement": "IC50", "setting": "[7]", "value": "> 100000", "unit": "nM"}, {"measurement": "inhibition of recombinant T. cruzi CYP51", "setting": "[7]; direct biochemical assay", "value": "did not inhibit"}, {"measurement": "EC50", "setting": "[8]; read-out: HepG2 EC50", "value": "> 100000", "unit": "nM"}, {"measurement": "chromatographic logD", "setting": "[9]", "value": 3.2}, {"measurement": "PFI", "setting": "[10]", "value": 6.2}, {"measurement": "solubility at 1 h", "setting": "[11]", "value": 110, "unit": "µg/mL"}, {"measurement": "FaSSIF pH 6.5", "setting": "[12]", "value": 456, "unit": "µg/mL"}]}, {"smiles": "CC[C@@H]([C@H](C)O)n1ncn(-c2ccc(N3CCN(c4ccc(OC[C@@H]5CO[C@@](Cn6cncn6)(c6ccc(F)cc6F)C5)cc4)CC3)cc2)c1=O", "note": "[Posaconazole, reference compound]", "values": [{"measurement": "EC50", "setting": "[4]; [15]", "value": 2.51, "unit": "nM"}, {"measurement": "EC50", "setting": "[4]; read-out: Amastigotes EC50", "value": 3, "unit": "nM"}, {"measurement": "EC50", "setting": "[5]; read-out: Vero EC50", "value": "> 50000", "unit": "nM"}, {"measurement": "EC50", "setting": "[5]; [16]", "value": "> 50100", "unit": "nM"}, {"measurement": "EC50", "setting": "[6]; read-out: Trypomastigotes EC50", "value": "> 50000", "unit": "nM"}, {"measurement": "EC50", "setting": "[6]; [17]", "value": "> 50100", "unit": "nM"}, {"measurement": "EC50", "setting": "[8]; read-out: HepG2 EC50", "value": "> 100000", "unit": "nM"}, {"measurement": "EC50", "setting": "[8]; read-out: HepG2 pEC50 (converted)", "value": "> 100000", "unit": "nM"}, {"measurement": "chromatographic logD", "setting": "[9]", "value": 6.1}, {"measurement": "PFI", "setting": "[10]", "value": 11.1}, {"measurement": "solubility at 1 h", "setting": "[11]", "value": 14, "unit": "µg/mL"}, {"measurement": "washout outcome in combination with BNZ", "setting": "[13]", "value": "failed to eliminate all parasites"}]}, {"smiles": "CC1CS(=O)(=O)CCN1/N=C/c1ccc([N+](=O)[O-])o1", "note": "(stereo not drawn) [NFX, nifurtimox]", "values": [{"measurement": "discontinuation of treatment prior to completion due to adverse side-effects", "setting": "[14]", "value": "≤ 43", "unit": "%"}]}]}
